Data: ChEMBL document CHEMBL4825684, “Design, synthesis and biological evaluation of N-anthraniloyl tryptamine derivatives as pleiotropic molecules for the therapy of malignant glioma” (Eur J Med Chem, 2021)
Active and inactive are the calls of the source. The calls are words filed in the database; no cut-off is given here.

Legend:
[1] = molecular target: T1, Prostaglandin G/H synthase 2 (Homo sapiens, UniProt P35354); assay: Inhibition of human COX2 assessed as fluorescence by microplate reader
T1 sequence (P35354 whole entry): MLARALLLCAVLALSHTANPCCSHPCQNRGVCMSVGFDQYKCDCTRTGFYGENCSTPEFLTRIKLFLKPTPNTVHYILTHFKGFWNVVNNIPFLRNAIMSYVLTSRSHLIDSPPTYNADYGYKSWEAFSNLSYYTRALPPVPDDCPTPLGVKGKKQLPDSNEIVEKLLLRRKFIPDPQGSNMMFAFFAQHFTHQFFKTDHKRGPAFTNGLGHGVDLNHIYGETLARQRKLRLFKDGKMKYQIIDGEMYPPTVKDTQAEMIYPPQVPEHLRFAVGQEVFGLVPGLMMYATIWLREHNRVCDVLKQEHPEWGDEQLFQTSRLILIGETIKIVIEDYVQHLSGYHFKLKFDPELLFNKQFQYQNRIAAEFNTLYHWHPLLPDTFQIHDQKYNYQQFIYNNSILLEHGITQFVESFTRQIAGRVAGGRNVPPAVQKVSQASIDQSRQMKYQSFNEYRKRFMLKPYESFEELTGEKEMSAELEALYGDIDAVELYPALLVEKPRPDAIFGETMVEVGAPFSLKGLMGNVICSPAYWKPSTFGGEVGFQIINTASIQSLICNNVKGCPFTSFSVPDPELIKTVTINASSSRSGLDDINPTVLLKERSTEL

[2] = test system: C6; assay: Antiproliferative activity against rat C6 cells assessed as growth inhibition incubated for 72 hrs by CCK-8 assay; assay type: functional, cell-based; conditions: C6, 72 h
[3] = test system: U-87 MG; assay: Antiproliferative activity against human U-87 MG cells assessed as growth inhibition incubated for 72 hrs by CCK-8 assay; assay type: functional, cell-based, U-87MG ATCC
[4] = test system: U-251; assay: Antiproliferative activity against human U-251 cells assessed as growth inhibition incubated for 72 hrs by CCK-8 assay; assay type: functional, cell-based; conditions: U-251, 72 h
[5] = test system: C6; assay: Antitumor activity against rat C6 cells inoculated orthotopic Sprague-Dawley rat model assessed as reduction tumor weight at 50 mg/kg, ip twice a day treated 3 days after tumor cell injection measured for 13 days after tumor implantation; assay type: functional, organism-based; conditions: time 3.0 day
[6] = test system: C6; assay: Antitumor activity against rat C6 cells inoculated orthotopic Sprague-Dawley rat model assessed as reduction tumor volume at 50 mg/kg, ip twice a day treated 3 days after tumor cell injection measured for 13 days after tumor implantation; assay type: functional, organism-based; conditions: time 3.0 day
[7] = test system: C6; assay: Antitumor activity against rat C6 cells inoculated orthotopic Sprague-Dawley rat model assessed as tumor growth inhibition at 50 mg/kg, ip twice a day treated 3 days after tumor cell injection measured for 13 days after tumor implantation; assay type: functional; conditions: 72 h, time 3 day, read-out: TGI
[8] = test system: C6; assay: Antitumor activity against rat C6 cells inoculated orthotopic Sprague-Dawley rat model assessed as increase in E-cadherin in tumor tissue at 50 mg/kg, ip twice a day treated 3 days after tumor cell injection measured for 13 days after tumor implantation by Western blot analysis; assay type: functional, organism-based; conditions: time 3.0 day
[9] = test system: C6; assay: Antitumor activity against rat C6 cells inoculated orthotopic Sprague-Dawley rat model assessed as decrease in PGE2 in tumor tissue at 50 mg/kg, ip twice a day treated 3 days after tumor cell injection measured for 13 days after tumor implantation […]; assay type: functional, organism-based; conditions: time 3.0 day
[10] = test system: C6; assay: Antitumor activity against rat C6 cells inoculated orthotopic Sprague-Dawley rat model assessed as decrease in VEGF-A in tumor tissue at 50 mg/kg, ip twice a day treated 3 days after tumor cell injection measured for 13 days after tumor implantation by Western blot analysis; assay type: functional, organism-based; conditions: time 3.0 day
[11] = test system: C6; assay: Antitumor activity against rat C6 cells inoculated orthotopic Sprague-Dawley rat model assessed as decrease in p-STAT3 in tumor tissue at 50 mg/kg, ip twice a day treated 3 days after tumor cell injection measured for 13 days after tumor implantation by Western blot analysis; assay type: functional, organism-based; conditions: time 3.0 day
[12] = Toxicity in rat C6 cells inoculated orthotopic Sprague-Dawley rat model assessed as body weight change at 50 mg/kg, ip twice a day administered for 13 days of tumor implantation; assay type: organism-based; conditions: in vivo, 312 h, time 13 day
[13] = test system: BV-2; assay: Inhibition of MMP9 production in mouse BV-2 cells co-cultured with rat C6 glioma cells at 2 uM incubated for 24 hrs by Western blot analysis; assay type: functional, cell-based

| IC50 [1] | IC50 [3] | IC50 [4] | Structure (SMILES) | IC50 [2] | also measured |
| --- | --- | --- | --- | --- | --- |
| > 40 µM | > 40 µM | 20.4 µM | O=C(NCCc1c[nH]c2ccccc12)c1ccccc1Nc1cccc(F)c1 | > 40 µM |  |
| > 40 µM | > 40 µM | > 40 µM | O=C(NCCc1c[nH]c2ccccc12)c1ccccc1Nc1cccc2cccnc12 | > 40 µM |  |
| 3.98 µM | > 40 µM | 17.9 µM | O=C(NCCc1c[nH]c2ccccc12)c1ccccc1Nc1ccc(Cl)cc1 | > 40 µM |  |
| > 40 µM | > 40 µM | 22.2 µM | O=C(NCCc1c[nH]c2ccccc12)c1ccccc1Nc1cccc(Cl)c1 | > 40 µM |  |
|  |  |  | Cn1nnc2c(C(N)=O)ncn2c1=O [TEMOZOLOMIDE] |  | Activity [5]: Active; Activity [6]: Active; inhibition in vivo at 50 mg/kg [7]: 54.8%; Activity [8]: Active; Activity [9]: Active; Activity [10]: Active; Activity [11]: Active; Activity [12]: Toxic |
| 6.21 µM | > 40 µM | 32.3 µM | COc1ccc(Nc2ccccc2C(=O)NCCc2c[nH]c3ccccc23)cc1 | > 40 µM |  |
| 2.96 µM | > 40 µM | 27.5 µM | O=C(NCCc1c[nH]c2ccccc12)c1ccccc1Nc1cccnc1Cl | 24.1 µM |  |
| 1.21 µM | > 40 µM | > 40 µM | Nc1ccccc1Nc1ccccc1C(=O)NCCc1c[nH]c2ccccc12 | > 40 µM | inhibition [13]: Active |
| > 40 µM | > 40 µM | 21.4 µM | O=C(NCCc1c[nH]c2ccccc12)c1ccccc1Nc1ccccc1Br | 17.9 µM |  |
| > 40 µM | > 40 µM | 32.9 µM | O=C(NCCc1c[nH]c2ccccc12)c1ccccc1Nc1ccccc1I | > 40 µM |  |
| > 40 µM | 35.7 µM | 17.3 µM | O=C(NCCc1c[nH]c2ccccc12)c1ccccc1Nc1ccc(C(F)(F)F)cc1 | > 40 µM |  |
| > 40 µM | > 40 µM | 18.2 µM | CCCCc1ccc(Nc2ccccc2C(=O)NCCc2c[nH]c3ccccc23)cc1 | > 33.7 µM |  |
| 4.23 µM | > 40 µM | 26.2 µM | O=C(NCCc1c[nH]c2ccccc12)c1ccccc1Nc1ccccc1F | > 40 µM |  |
| 2.46 µM | > 40 µM | 12.8 µM | O=C(NCCc1c[nH]c2ccccc12)c1ccccc1Nc1ccc(F)cc1 | 27.1 µM |  |
| 1.96 µM | > 40 µM | 24.6 µM | Cc1ncccc1Nc1ccccc1C(=O)NCCc1c[nH]c2ccccc12 | > 40 µM |  |
| > 40 µM | > 40 µM | 25.1 µM | O=C(NCCc1c[nH]c2ccccc12)c1ccccc1Nc1cncc(Br)c1 | > 40 µM |  |
| 17.6 µM | > 40 µM | 24.4 µM | Cc1cncc(Nc2ccccc2C(=O)NCCc2c[nH]c3ccccc23)c1 | > 40 µM |  |
| 31 µM | 23.4 µM | 13.3 µM | Cc1cccc(Nc2ccccc2C(=O)NCCc2c[nH]c3ccccc23)c1 | > 40 µM |  |
| 19.6 µM | > 40 µM | 17.9 µM | Cc1ccc(Nc2ccccc2C(=O)NCCc2c[nH]c3ccccc23)cn1 | > 40 µM |  |
| 1.43 µM | > 40 µM | > 40 µM | CN(C)c1ccc(Nc2ccccc2C(=O)NCCc2c[nH]c3ccccc23)cc1 | > 40 µM | inhibition [13]: Active |
| 5.96 µM | 34.7 µM | 13.7 µM | Cc1ccc(Nc2ccccc2C(=O)NCCc2c[nH]c3ccccc23)cc1 | > 40 µM |  |
|  | > 40 µM | > 40 µM | COc1ccc2[nH]cc(CCNC(C)=O)c2c1 [MELATONIN] | > 40 µM |  |
| > 40 µM | > 40 µM | 30.5 µM | Cc1ccccc1Nc1ccccc1C(=O)NCCc1c[nH]c2ccccc12 | > 40 µM |  |
| 23.7 µM | > 40 µM | 25.2 µM | O=C(NCCc1c[nH]c2ccccc12)c1ccccc1Nc1cccnc1 | > 40 µM |  |
| > 40 µM | > 40 µM | 21 µM | O=C(NCCc1c[nH]c2ccccc12)c1ccccc1Nc1cccc(Br)c1 | > 40 µM |  |
|  | > 40 µM | > 40 µM | Cc1ccc(-c2cc(C(F)(F)F)nn2-c2ccc(S(N)(=O)=O)cc2)cc1 [CELECOXIB] | > 40 µM |  |
| > 40 µM | > 40 µM | > 40 µM | O=C(NCCc1c[nH]c2ccccc12)c1ccccc1Nc1ccc2nccnc2c1 | > 40 µM |  |
| > 40 µM | > 40 µM | 14.8 µM | O=C(NCCc1c[nH]c2ccccc12)c1ccccc1Nc1ccccc1Cl | > 40 µM |  |
| 5.68 µM | > 40 µM | > 40 µM | O=C(NCCc1c[nH]c2ccccc12)c1ccccc1Nc1ccc(Br)cc1 | > 40 µM |  |
